Data: US7928134B2, “5-aryl-4,5-dihydro-(1H)-pyrazolines as cannabinoid CB1 receptor agonists” (Solvay Pharmaceuticals B.V., priority 2007, dated 2011)

Legend:
[1] = target: T1, human cannabinoid CB1 receptor (Homo sapiens, UniProt P21554); assay: In vitro affinity for cannabinoid-CB1 receptors ([3H]CP-55,940 radioligand binding); conditions: membranes of CHO cells stably transfected with human CB1, read-out: receptor binding Human CB1 affinity pKi (converted)
T1 construct: expressed in transfected cells; host or cells: Chinese hamster ovary (CHO) cells, membrane preparations
T1 sequence (P21554 whole entry): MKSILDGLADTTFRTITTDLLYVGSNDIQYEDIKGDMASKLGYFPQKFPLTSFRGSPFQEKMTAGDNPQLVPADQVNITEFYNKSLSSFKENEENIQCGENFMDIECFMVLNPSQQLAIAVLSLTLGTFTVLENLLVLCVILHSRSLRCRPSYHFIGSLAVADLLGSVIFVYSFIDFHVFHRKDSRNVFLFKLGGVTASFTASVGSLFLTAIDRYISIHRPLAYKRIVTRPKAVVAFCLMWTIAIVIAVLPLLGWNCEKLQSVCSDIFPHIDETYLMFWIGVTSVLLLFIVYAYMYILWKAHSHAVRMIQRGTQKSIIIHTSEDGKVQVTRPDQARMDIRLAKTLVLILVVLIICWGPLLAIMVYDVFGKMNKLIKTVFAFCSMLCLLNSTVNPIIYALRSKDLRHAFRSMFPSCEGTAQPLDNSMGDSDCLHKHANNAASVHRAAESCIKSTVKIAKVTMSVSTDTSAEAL
Method: In Vitro Affinity for Cannabinoid-CB1 Receptors
(§1) The affinity of the compounds of the invention for cannabinoid CB1 receptors can be determined using membrane preparations of Chinese hamster ovary (CHO) cells in which the human cannabinoid CB1 receptor is stably transfected in conjunction with [^3H]CP-55,940 as radioligand. After incubation of a freshly prepared cell membrane preparation with the [^3H]-ligand, with or without addition of one or more compounds of the invention, separation of bound and free ligand is performed by filtration over glassfiber filters. Radioactivity on the filter is measured by liquid scintillation counting.

[2] = target: T2, human cannabinoid CB2 receptor (Homo sapiens, UniProt P34972); assay: In vitro affinity for cannabinoid-CB2 receptors ([3H]CP-55,940 radioligand binding); conditions: membranes of CHO cells stably transfected with human CB2, read-out: receptor binding Human CB2 affinity pKi (converted)
T2 construct: expressed in transfected cells; host or cells: CHO cells, membrane preparations
T2 sequence (P34972 whole entry): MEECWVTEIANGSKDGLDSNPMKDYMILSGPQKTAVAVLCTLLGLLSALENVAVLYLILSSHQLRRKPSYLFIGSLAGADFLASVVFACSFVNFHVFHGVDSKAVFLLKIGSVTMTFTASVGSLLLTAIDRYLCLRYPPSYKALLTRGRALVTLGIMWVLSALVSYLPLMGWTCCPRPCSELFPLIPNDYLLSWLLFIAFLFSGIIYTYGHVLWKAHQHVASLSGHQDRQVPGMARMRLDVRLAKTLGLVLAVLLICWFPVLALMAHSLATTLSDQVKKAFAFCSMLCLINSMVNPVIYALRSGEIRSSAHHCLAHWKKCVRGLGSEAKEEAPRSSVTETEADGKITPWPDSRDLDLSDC
Method: In Vitro Affinity for Cannabinoid-CB2 Receptors
as §1, with “CB2” for “CB1”, “CHO” for “Chinese hamster ovary (CHO)”

human CB1 receptor = target: T3, human CB1 receptor (Homo sapiens, UniProt P21554); assay: In vitro cannabinoid-CB1 receptor (ant)agonism ([3H]-arachidonic acid release in CHO cells); type: cell-based; conditions: human CB1 receptor cloned in CHO cells; for EC50: read-out: Functional CB1 assays Human CB1 agonism pEC50 (converted)
T3 construct: expressed in transfected cells; host or cells: CHO cells
T3 sequence (P21554 whole entry): as the sequence (P21554 whole entry) above
Method: In Vitro Cannabinoid-CB1 Receptor (Ant)Agonism
In vitro CB1 receptor antagonism/agonism can be assessed with the human CB1 receptor cloned in CHO cells. CHO cells are grown in a Dulbecco's Modified Eagle's medium (DMEM) culture medium, supplemented with 10% heat-inactivated fetal calf serum. Medium is aspirated and replaced by DMEM, without fetal calf serum, but containing [^3H]-arachidonic acid and incubated overnight in a cell culture stove (5% CO2/95% air; 37° C.; water-saturated atmosphere). During this period [^3H]-arachidonic acid is incorporated in membrane phospholipids. On the test day, medium is aspirated and cells are washed three times using 0.5 ml DMEM, containing 0.2% bovine serum albumin (BSA). CB1 agonist stimulation leads to activation of PLA2 followed by release of [^3H]-arachidonic acid into the medium. This CB1 agonist-induced release is concentration-dependently antagonized by CB1 receptor antagonists, such as for example rimonabant.

Structure (SMILES) | Ki [1] [nM] | Ki [2] [nM] | EC50 (human CB1 receptor) [nM] | Functional CB1 assays Human CB1 agonism pEC50 (human CB1 receptor)
CCCCCN1N=C(C(=O)NC(C)c2ccccc2)CC1c1ccccc1 (mixture of isomers) [Compound 14, N-(1-Phenyl-ethyl)-1-(n-pentyl)-5-phenyl-4,5-dihydro-(1H)-pyrazole-3-carboxamide] | 31.6 | 251 | 501 | 
CCCCCN1N=C(C(=O)NCc2cccc(C(F)(F)F)c2)CC1c1ccccc1 (racemic) [Compound 22] | 63.1 | 316 | 79.4 | 
CCCCN1N=C(C(=O)NC(C)(C)c2ccccc2)[C@@H](C)[C@@H]1c1ccccc1 (relative stereo) [Compound 37, N-(1-Phenyl-1-methyl-ethyl)-1-(n-butyl)-trans-4-methyl-5-phenyl-4,5-dihydro-(1H)-pyrazole-3-carboxamide] | 15.8 | 100 | 7.94 | 
CCCCCN1N=C(C(=O)NC2C3CC4CC(C3)CC2C4)CC1c1ccccc1 (stereo not drawn) [Compound 1, N-(Adamant-2-yl)-1-(n-pentyl)-5-phenyl-4,5-dihydro-(1H)-pyrazole-3-carboxamide] | 7.94 | 5.01 |  | 8.1
CCCCCN1N=C(C(=O)Nc2cccc3ccccc23)CC1c1ccccc1 (stereo not drawn) [Compound 4, N-(Napht-1-yl)-1-(n-pentyl)-5-phenyl-4,5-dihydro-(1H)-pyrazole-3-carboxamide] | 31.6 | 79.4 | 39.8 | 
CCCCCN1N=C(C(=O)NCc2cccnc2)CC1c1ccccc1 (stereo not drawn) [Compound 7, N-(Pyridin-3-ylmethyl)-1-(n-pentyl)-5-phenyl-4,5-dihydro-(1H)-pyrazole-3-carboxamide] | 126 | 501 | 631 | 
CCCCCN1N=C(C(=O)NC2CC3CCC2C3)CC1c1ccccc1 (stereo not drawn) [Compound 12, N-(Exo-bicyclo[2.2.1]hept-2-yl)-1-(n-pentyl)-5-phenyl-4,5-dihydro-(1H)-pyrazole-3-carboxamide] | 79.4 | 39.8 | 39.8 | 
CCCCCN1N=C(C(=O)NC23CC4CC(CC(C4)C2)C3)CC1c1ccccc1 (stereo not drawn) [Compound 27, N-(Adamantyl)-1-(n-pentyl)-5-phenyl-4,5-dihydro-(1H)-pyrazole-3-carboxamide] | 15.8 | 7.94 | 12.6 | 
CCCCCN1N=C(C(=O)NC(C)(C)c2ccccc2)CC1c1ccccc1 (stereo not drawn) [Compound 28, N-(1-Phenyl-1-methyl-ethyl)-1-(n-pentyl)-5-phenyl-4,5-dihydro-(1H)-pyrazole-3-carboxamide] | 6.31 | 100 | 7.94 | 
CCCCCN1N=C(C(=O)NC(C)(C)c2ccccc2)CC1c1ccccn1 (stereo not drawn) [Compound 32, N-(1-Phenyl-1-methyl-ethyl)-1-(n-pentyl)-5-(pyrid-2-yl)-4,5-dihydro-(1H)-pyrazole-3-carboxamide] | 7.94 | 10 | 39.8 | 
CCCCCN1N=C(C(=O)N[C@H]2C[C@H]3CC[C@]2(C)C3(C)C)CC1c1ccccc1F (stereo partly drawn) [Compound 101, N-[endo-(1R,2S,4R)-1,7,7-trimethylbicyclo[2.2.1]hept-2-yl]-1-(n-pentyl)-5-(2-fluorophenyl)-4,5-dihydro-(1H)-pyrazole-3-carboxamide] | 6.31 | 7.94 | 6.31 | 
CCCCN1N=C(C(=O)NC(C)(C)c2ccccc2)CC1c1ccccc1 (stereo not drawn) [Compound 102, N-(1-phenyl-1-methyl-ethyl)-1-(n-butyl)-5-phenyl-4,5-dihydro-(1H)-pyrazole-3-carboxamide] | 39.8 | 39.8 | 100 | 
CCCCN1N=C(C(=O)N[C@H]2C[C@H]3CC[C@]2(C)C3(C)C)CC1c1ccccc1 (stereo partly drawn) [Compound 103, N-[endo-(1R,2S,4R)-1,7,7-trimethylbicyclo[2.2.1]hept-2-yl]-1-(n-butyl)-5-phenyl-4,5-dihydro-(1H)-pyrazole-3-carboxamide] | 79.4 | 25.1 | 31.6 | 
CCCCCN1N=C(C(=O)N[C@H]2C[C@H]3CC[C@]2(C)C3(C)C)CC1c1ccccc1 (stereo partly drawn) [Compound 104, N-[endo-(1R,2S,4R)-1,7,7-trimethylbicyclo[2.2.1]hept-2-yl]-1-(n-pentyl)-5-phenyl-4,5-dihydro-(1H)-pyrazole-3-carboxamide] | 6.31 | 25.1 | 3.16 | 
CCCCCN1N=C(C(=O)NC(C)(C)c2ccc(F)cc2)CC1c1ccccc1 (stereo not drawn) [Compound 105, N-(1-(4-fluorophenyl)-1-methyl-ethyl)-1-(n-pentyl)-5-phenyl-4,5-dihydro-(1H)-pyrazole-3-carboxamide] | 15.8 | 126 | 1.58 | 
CC(C)(NC(=O)C1=NN(CC2CCCCC2)C(c2ccccc2)C1)c1ccc(F)cc1 (stereo not drawn) [Compound 108, N-[1-(4-fluorophenyl)-1-methyl-ethyl]-1-cyclohexylmethyl-5-phenyl-4,5-dihydro-(1H)-pyrazole-3-carboxamide] | 25.1 | 31.6 | 15.8 | 
CC(C)CN1N=C(C(=O)N[C@H]2C[C@H]3CC[C@]2(C)C3(C)C)CC1c1ccccc1 (stereo partly drawn) [Compound 110, N-[endo-(1R,2S,4R)-1,7,7-trimethylbicyclo[2.2.1]hept-2-yl]-1-isobutyl-5-phenyl-4,5-dihydro-(1H)-pyrazole-3-carboxamide] | 50.1 | 50.1 | 316 | 
